US11987575B2, “Tricyclic compounds as BCR-ABL inhibitors” (ASCENTAGE PHARMA (SUZHOU) CO., LTD., priority 2019, dated 2024)

How the values were obtained:
BaF3 (T315I mutant) = BaF3 (T315I mutant) (Homo sapiens, UniProt P00519, T315I, cells depend on it); assay: WST (CCK-8) anti-proliferative assay, BaF3 T315I mutant; conditions: read-out: BaF3 (T315I mutant), 72 h treatment, CCK-8 readout OD 450 nm
Method: (§1) The anti-proliferative effect of representative compounds of the present disclosure was determined by a water-soluble tetrazolium (WST)-based assay using Cell Counting Kit-8 (CCK-8). Cells were seeded in 96-well plates and treated with different concentrations of test articles for 72 h. Each treatment was tested in triplicate. Briefly, a series of 9 concentrations were chosen for each test article and added at 100 μl/well into a 96-well plate. Each concentration was tested in triplicate. 100 μl of diluent was added into 3-6 wells in the same plate for cell control group, and another set of 3-6 wells was used as a blank control.
(§2) In each well, 100 μl of cell suspension (containing optimal cell numbers, which creates approximately 100% confluence of cells in control wells based on by the absorbance (OD) value) was dispensed into the same 96-well plate except for the blank well. The plate was then cultured at 37° C. in an incubator in an atmosphere with 5% CO2 for 72 h. At the end of the treatments, 20 μl/well of CCK-8 reagent was directly added to each well. The plate was then incubated at 37° C. in an incubator in an atmosphere with 5% CO2 for 2-4 hours.
(§3) The cells viability was calculated using the mean OD value of triplicated wells following the equation below: (OD sample−OD blank)/(OD cell control−OD blank)×100 IC50 values were calculated with Graphpad Prism 6.0 software using nonlinear regression (curve fitting) type data analysis.

BaF3(WT) = BaF3(WT) (Homo sapiens, UniProt P00519); assay: WST (CCK-8) anti-proliferative assay, BaF3 WT; conditions: read-out: BaF3(WT); BaF3 WT cells, 72 h treatment, CCK-8 readout OD 450 nm
Method: as §1, §2, §3

SMILES | GI50 (BaF3 (T315I mutant)) [µM] | GI50 (BaF3(WT)) [µM]
CC(=O)N[C@@H]1CC[C@H]2c3cc(C(=O)Nc4ccc(OC(F)(F)Cl)cc4)cc(-c4cncc(C)c4)c3N(C(C)C)[C@@H]12 [Compound 50-A] | 0.039 | 0.004
COc1cncc(-c2cc(C(=O)Nc3ccc(OC(F)(F)Cl)cc3)cc3c2N(C(C)C)[C@H]2[C@H](NC(C)=O)CC[C@@H]32)c1 [Compound 51-A] | 0.116 | 0.012
CC(=O)N[C@@H]1CC[C@H]2c3cc(C(=O)Nc4ccc(OC(F)(F)Cl)cc4)cc(-c4cncc(Cl)c4)c3N(C(C)C)[C@@H]12 [Compound 52-A] | 0.047 | 0.003
CC(=O)N[C@@H]1CC[C@H]2c3cc(C(=O)Nc4ccc(OC(F)(F)Cl)cc4)cc(-c4cncc(C#N)c4)c3N(C(C)C)[C@@H]12 [Compound 53-A] | 0.016 | 0.003
CC(C)N1c2c(-c3ccn[nH]3)cc(C(=O)Nc3ccc(OC(F)(F)Cl)cc3)cc2[C@@H]2CCS(=O)(=O)C[C@@H]21 [Compound 54-A, (4aS,9aR)-N-(4-(chlorodifluoromethoxy)phenyl)-9-isopropyl-8-(1H-pyrazol-5-yl)-1,3,4,4a,9,9a-hexahydrothiopyrano[3,4-b]indole-6-carboxamide 2,2-dioxide] | 0.045 | 0.008
CC(=O)N[C@@H]1CC[C@H]2c3cc(C(=O)Nc4ccc(OC(F)(F)Cl)cc4)cc(-c4ccccn4)c3N(CC(C)(C)C)[C@@H]12 [Compound 56-A] | 0.44 | 0.056
CC(=O)N[C@@H]1CC[C@H]2c3cc(C(=O)Nc4ccc(OC(F)(F)Cl)cc4)cc(-c4ccncn4)c3N(CC(C)(C)C)[C@@H]12 [Compound 57-A] | 0.316 | 0.097
CC(=O)N[C@@H]1CC[C@H]2c3cc(C(=O)Nc4ccc(OC(F)(F)Cl)cc4)cc(-c4cnccn4)c3N(CC(C)(C)C)[C@@H]12 [Compound 58-A] | 0.08 | 0.018
CC(=O)N[C@@H]1CC[C@H]2c3cc(C(=O)Nc4ccc(OC(F)(F)Cl)cc4)cc(-c4cccnn4)c3N(CC(C)(C)C)[C@@H]12 [Compound 59-A] | 0.122 | 0.065
CC(=O)N[C@@H]1CC[C@H]2c3cc(C(=O)Nc4ccc(OC(F)(F)Cl)cc4)cc(-c4ccc(C)nc4)c3N(CC(C)(C)C)[C@@H]12 [Compound 60-A] | 0.092 | 0.013
CC(=O)N[C@@H]1CC[C@H]2c3cc(C(=O)Nc4ccc(OC(F)(F)Cl)cc4)cc(-c4cnc(C)nc4)c3N(CC(C)(C)C)[C@@H]12 [Compound 61-A] | 0.056 | 0.011
CC(=O)NC1CCC2c3cc(C(=O)Nc4ccc(OC(F)(F)Cl)cc4)cc(-c4ccn[nH]4)c3N(C3CC3)C12 (stereo not shown) [Compound 62] | 0.041 | 0.021
COC(C)(C)CN1c2c(-c3ccn[nH]3)cc(C(=O)Nc3ccc(OC(F)(F)Cl)cc3)cc2C2CCC(NC(C)=O)C21 (stereo not shown) [Compound 63] | 0.052 | 0.041
CC(=O)NC1CCC2c3cc(C(=O)Nc4ccc(OC(F)(F)Cl)cc4)cc(-c4cncc(F)c4)c3N(C3CCCC3)C12 (stereo not shown) [Compound 64] | 0.043 | 0.008
CCC(CC)N1c2c(-c3cncc(F)c3)cc(C(=O)Nc3ccc(OC(F)(F)Cl)cc3)cc2C2CCC(NC(C)=O)C21 (stereo not shown) [Compound 65] | 0.119 | 0.009
CC(=O)N[C@@H]1CC[C@H]2c3cc(C(=O)Nc4ccc(OC(F)(F)Cl)cc4)cc(-c4cccc(C#N)c4)c3N(C(C)C)[C@@H]12 [Compound 66-A] | 0.029 | 0.003
CC(=O)N[C@@H]1CC[C@H]2c3cc(C(=O)Nc4ccc(OC(F)(F)Cl)cc4)cc(-c4cc(F)cnc4C#N)c3N(C(C)C)[C@@H]12 [Compound 67-A] | 0.059 | 0.006
